{"source": "patent US7576226B2", "about": "“Process of making isomers of norelgestromin and methods using the same” (priority 2003, dated 2009)", "key": {"[1]": {"experiment": "Metabolic stability and clearance in human liver microsomes", "type": "in vitro ADME", "settings": "human liver microsomes 1 mg/mL, 5 μM isomer, mean of 3 parallel measurements; for Metabolic stability: F% (metabolic bioavailability)", "procedure": "The metabolic stability of norelgestromin E and Z isomers was examined in human liver microsomes. The 2.5 mL incubation mixture contained 6 mM of Na-pyrophosphate, 5 mM of MgCl2, 5 mM of glucose-6-phosphate, 1 U/mL of glucose 6-phosphate dehydrogenase, human liver microsomes (1 mg/mL) and 5 μM of norelgestromin E or Z isomers. The pH was adjusted with 100 mM of Tris-HCl buffer to pH 7.4. The reaction was started by the addition of 5 mM of NADPH. 0.5 mL samples were taken at 0.5 and 20 minutes with immediate precipitation by 0.5 mL of ice-cold methanol. 1 mL precipitated samples were centrifuged for 30 min at 1200 g, and 10 μL of supernatant was injected into the HPLC.\nAnalytical measurements were conducted using a Merck-Hitachi HPLC system, with UV monitoring at 244 nm. Unchanged material was measured and intrinsic clearance (Clint) and metabolic bioavailability (F%) was calculated with the following equations: dc/dt/c0=Clint, (mL/min×g protein), where dc/dt is the concentration change in a given period of time and c0 is the initial concentration of the norelgestromin isomer (measured in the 0 min sample). Additionally, Clint1×45=Clint2 (mL/min×g liver) and EH=Clin2/Clint2+HBF, where EH is hepatic extraction and HBF is the hepatic blood flow. Finally the metabolic stability: […]\nFor statistical analysis, Student's t-test was used (Microsoft Excel). The results summarized in Table 2 are calculated as a mean of 3 parallel measurements."}, "[2]": {"system": "Caco-2 human adenocarcinoma (epithelial) cell line monolayers", "experiment": "Caco-2 permeability measurement", "type": "in vitro ADME", "settings": "Caco-2 monolayer, luminal to basolateral, 50 μM", "procedure": "Drug absorption studies were performed with Caco-2 human adenocarcinoma (epithelial) cell line monolayers as an in vitro model. Passive flux characteristics of drugs across the Caco-2 monolayer have shown a correlation with human oral bioavailability.\nCaco-2 cells obtained from American Type Culture collection, Rockville, Md., (ATCC) were grown at 37° C. in an atmosphere of 5% CO2 in Dulbecco's modified eagle medium supplemented with 10% heat inactivated fetal bovine serum (GIBCOBRL 11360-039) and antibiotics: penicillin 100 U/mL, and streptomycin 100 μg/mL (GIBCOBRL 15140-031).\nConfluent cell monolayers grown in an incubator (at 37° C. with 5% CO2/[…] and 95% humidity) were subcultured every seven days by treatment with 0.25% trypsin containing 1 mM EDTA.\n19-23-day-old confluent monolayers of fully differentiated Caco-2 cells were used for transport studies after 6-10 passages.\nEHS Cell Attachment Matrix (Promega G5971), Minimum Essential medium Eagle (MEM) with Earle salts, L-Glutamine (GIBCOBRL 41500-091) and Transwell Polycarbonate Membrane (Costar 3401) were used.\nCoated Transwells with EHS Cell Attachment Matrix (Promega G5971) and 200000-500000 Caco-2 cells are applied/inserted. […]\nThe concentrations of the isomers were determined by liquid chromatography with ultraviolet (HPLC/UV) analysis. […]\nDim.: 125−3 mm.+guard. […] Peak quantitation: height; calculation method: EXT-STD."}, "[3]": {"experiment": "Lipophilicity by isocratic reversed-phase HPLC (k′, CHI)", "type": "physicochemical", "settings": "for Polarity (k′, HPLC): Nova-Pak C18, acetonitrile mobile phase, 25° C.; for Polarity (CHI index, HPLC): acetonitrile concentration of the mobile phase where log k′=0", "procedure": "Lipophilicity was determined by an HPLC method. The HPLC measurements were performed on a Thermo Separation Product (SpectraSystem P4000 and SpectraFOCUS Forward Optical Scanning Detector) HPLC instrument. Data were analyzed by ChromQuest (ver. 2.51) software.\nFor reversed-phase HPLC measurements, a Nova-Pak C18 column was used (dimension of 4 μm×4.6 mm×250 mm: Waters, Ireland). Detection was performed at λ=280 nm and 25° C. The flow rate of the mobile phase was 1.0 mL/min. HPLC gradient grade acetonitrile was used as organic component (Merck KGaA., Darmstadt, Germany). The retention data of the two isomers were obtained by isocratical analysis of the mobile phases containing different amounts of acetonitrile. The void time (t0) was determined by injection of methanol.\nSamples were dissolved in a 1:1 mixture of acetonitrile:water in a concentration of 1 mg/4 mL. The log k′ values were calculated from the mean retention time measured after two subsequent injections of 10 μL volume (log k′=log((tR−t0)/t0)). The log k′ values were represented as a function of the concentration of acetonitrile.\nThe chromatographical hydrophobicity index (CHI) is a measure of the lipophilic character of the compounds in the reversed phase HPLC measurements. By definition, the CHI parameter is that concentration of acetonitrile of the mobile phase where log k′=0."}, "[4]": {"experiment": "Equilibrium solubility in distilled water (UV spectrophotometry)", "type": "physicochemical", "settings": "thermodynamic from solid, room temperature", "procedure": "The determination of equilibrium solubility of E and Z isomers of norelgestromin was carried out in distilled water. 20 mg of norelgestromin was added to 20 mL of distilled water at room temperature. The suspension was stirred continuously and samples were withdrawn from time to time. The samples were filtered, and the norelgestromin content of the filtrates was determined by a spectrophotometrical method measuring UV absorption. The spectrophotometrical measurements were performed on a VARIAN Cary 3E spectrophotometer at room temperature."}, "[5]": {"experiment": "CHI of six steroids (structure-absorption experiment)", "type": "physicochemical", "settings": "chromatographical hydrophobicity index, isocratical conditions", "procedure": "The beneficial effect of the increasing lipophilicity for the transdermal absorption was proven by carrying out a structure-absorption experiment with six different steroids. In the following publications: Int. J. Pharm. 217:1 (2001), and J. Chromatography 49:631 (1993), it has been shown that the chromatographical hydrophobicity index (CHI) measured under isocratical conditions is a reliable descriptor of lipophilicity. The CHI values of the investigated steroids were determined according to these experiments (Table 3) and correlated with the measured stratum corneum/water distribution coefficients."}}, "data": [{"compound": "C#C[C@]1(O)CC[C@H]2[C@@H]3CCC4=C/C(=N/O)CC[C@@H]4[C@H]3CC[C@@]21CC", "note": "(single isomer, unassigned; isomer d) [E-isomer, d-(17α)-13-ethyl-17-hydroxy-18,19-dinorpregn-4-ene-20-yn-3-one-(3E)-oxime]", "values": [{"measurement": "Metabolic stability", "setting": "[1]", "result": "86.7 ± 1.67"}, {"measurement": "Metabolic clearance (mL/min g liver)", "setting": "[1]", "result": "0.1815 ± 0.026", "unit": "mL/min g liver"}, {"measurement": "Concentration on the abluminal side (μM in the 30th min)", "setting": "[2]", "result": "1.27 ± 0.56", "unit": "µM"}, {"measurement": "Polarity (k′, HPLC)", "setting": "[3]", "result": 1.02}, {"measurement": "Polarity (CHI index, HPLC)", "setting": "[3]", "result": 74}, {"measurement": "solubility", "setting": "[4]", "result": 3.8, "unit": "µg/mL"}]}, {"compound": "C#C[C@]1(O)CC[C@H]2[C@@H]3CCC4=C/C(=N\\O)CC[C@@H]4[C@H]3CC[C@@]21CC", "note": "(single isomer, unassigned; isomer d) [Z-isomer, d-(17α)-13-ethyl-17-hydroxy-18,19-dinorpregn-4-ene-20-yn-3-one-(3Z)-oxime]", "values": [{"measurement": "Metabolic stability", "setting": "[1]", "result": "91.9 ± 1.52"}, {"measurement": "Metabolic clearance (mL/min g liver)", "setting": "[1]", "result": "0.1042 ± 0.021", "unit": "mL/min g liver"}, {"measurement": "Concentration on the abluminal side (μM in the 30th min)", "setting": "[2]", "result": "1.98 ± 0.78", "unit": "µM"}, {"measurement": "Polarity (k′, HPLC)", "setting": "[3]", "result": 1.46}, {"measurement": "Polarity (CHI index, HPLC)", "setting": "[3]", "result": 70}, {"measurement": "solubility", "setting": "[4]", "result": 12.1, "unit": "µg/mL"}]}, {"compound": "C[C@]12CCC(=O)C=C1CC[C@@H]1[C@@H]2CC[C@@]2(C)[C@H]1CC[C@]2(O)C(=O)CO", "note": "[Cortexolone]", "values": [{"measurement": "CHI", "setting": "[5]", "result": 54.87}]}, {"compound": "C[C@]12CC[C@@H]3c4ccc(O)cc4CC[C@H]3[C@@H]1C[C@@H](O)[C@@H]2O", "note": "[Estriol]", "values": [{"measurement": "CHI", "setting": "[5]", "result": 40.45}]}, {"compound": "C[C@]12CCC(=O)C=C1CC[C@@H]1[C@@H]2[C@@H](O)C[C@@]2(C)[C@H]1CC[C@]2(O)C(=O)CO", "note": "[Hydrocortisone]", "values": [{"measurement": "CHI", "setting": "[5]", "result": 33.8}]}, {"compound": "CC(=O)[C@H]1CC[C@H]2[C@@H]3CC=C4C[C@@H](O)CC[C@]4(C)[C@H]3CC[C@]12C", "note": "[Pregnenolone]", "values": [{"measurement": "CHI", "setting": "[5]", "result": 95.36}]}, {"compound": "C[C@]12CC[C@H]3[C@@H](CCC4=CC(=O)CC[C@@]43C)[C@@H]1CC[C@@H]2O", "note": "[Testosterone]", "values": [{"measurement": "CHI", "setting": "[5]", "result": 75.87}]}]}
